From patent US12600709B2, “Nonpeptide somatostatin type 5 receptor agonists and uses thereof” (Crinetics Pharmaceuticals, Inc., priority 2019, dated 2026) come the findings set out here.

This test concerns the target T1, human somatostatin receptor subtype 5 (Homo sapiens, UniProt P35346).
T1 construct: expressed in transfected cells
Nature of the test: cAMP assay for SST5R (inhibition of cAMP in CHO-K1 cells). Particulars: Table A; inhibition of cAMP via human SST5 receptor; read-out: SST5 potency. The class given is cell-based. The source says: General overview: All five SSTR subtypes are Gi coupled G-protein coupled receptors (GPCRs) that lead to decreases in intracellular cyclic AMP (cAMP) when activated by an agonist. Therefore, measurement of intracellular cAMP levels can be used to assess whether compounds of the invention are agonists of SSTR subtypes (John Kelly, Troy Stevens, W. Joseph Thompson, and Roland Seifert, Current Protocols in Pharmacology, 2005, 2.2.1-2.2). One example of an intracellular cAMP assay is described below.
cAMP Assay Protocol for SST5R:
Four days prior to the assay, 2,000 Chinese hamster ovary cells (CHO-K1, ATCC #CCL-61) stably expressing the human somatostatin receptor subtype 5 are plated in each well of a 96-well tissue culture-treated plate in Ham's F12 growth media (ThermoFisher #10-080-CM) supplemented with 10% donor bovine serum (Gemini Bio-Products #100-506), 100 U/mL penicillin; 100 µg/mL streptomycin; 2 mM L-glutamine (Gemini Bio-Products #400-110) and 0.25 mg/mL G418 Sulfate (GoldBio #108321-42-2). The cells are cultured at 37° C., 5% CO2 and 95% humidity. On the day of the assay, the media is aspirated and the cells are treated with 50 μL of 1.6 μM NKH477 (Sigma #N3290) plus various dilutions of compounds of the invention in assay buffer [1× Hank's Balanced Salt Solution (ThermoFisher #SH3058802), 0.5 mM HEPES pH 7.4, 0.1% bovine serum albumin, 0.2 mM 3-Isobutyl-1-methylxanthine (IBMX, VWR #200002-790)]. The cells are incubated for 20 minutes at 37° C. […] The cells are treated with 50 μL of lysis buffer (HRTF cAMP kit, Cisbio) for 30 minutes and then the lysate is diluted to 250 μL with assay buffer. The lysate is transferred to 384-well plates and cAMP detection and visualization antibodies are added and incubated for 1-24 hours at room temperature. The time-resolved fluorescent signal is read with a Tecan M1000Pro multiplate reader. The intracellular cAMP concentrations are calculated by regression to a standard curve and are plotted vs. the concentration of the compounds of the invention and the EC50 of the compounds are calculated using standard methods. All data manipulations are in GraphPad Prism v6 or v7.

SMILES strings stand for the structures. pEC50: −log10 of the molar value.

T1 sequence (P35346 whole entry): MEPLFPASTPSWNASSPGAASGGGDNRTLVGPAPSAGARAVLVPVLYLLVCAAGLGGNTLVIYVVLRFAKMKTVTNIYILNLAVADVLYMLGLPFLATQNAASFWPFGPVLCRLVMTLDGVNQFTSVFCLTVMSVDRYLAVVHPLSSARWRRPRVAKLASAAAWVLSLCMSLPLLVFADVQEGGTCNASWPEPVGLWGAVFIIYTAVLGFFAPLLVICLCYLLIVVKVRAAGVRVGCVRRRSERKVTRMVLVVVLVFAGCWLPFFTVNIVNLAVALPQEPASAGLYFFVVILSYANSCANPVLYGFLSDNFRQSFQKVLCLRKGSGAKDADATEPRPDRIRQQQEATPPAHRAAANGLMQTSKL

Take `COc1ncc(C(=O)NC2CCC(F)(F)CC2)c(N2CC[C@H](N)C2)c1-c1cc(F)cc(F)c1` [1-150, 4-[(3S)-3-aminopyrrolidin-1-yl]-N-(4,4-difluorocyclohexyl)-5-(3,5-difluorophenyl)-6-methoxypyridine-3-carboxamide]: the pEC50 was > 8.00.

For the compound `C[C@]1(N)CCN(c2c(C(=O)NCC3CC(F)(F)C3)cncc2-c2cc(F)cc(F)c2)C1` [1-50, 4-[(3S)-3-amino-3-methylpyrrolidin-1-yl]-N-[(3,3-difluorocyclobutyl)methyl]-5-(3,5-difluorophenyl)pyridine-3-carboxamide], the pEC50 was > 8.00.

For the compound `C[C@H](NC(=O)c1cnc(C#N)c(-c2cc(F)cc(F)c2)c1N1CC[C@H](N)C1)c1ccccc1` [1-97, 4-[(3S)-3-aminopyrrolidin-1-yl]-6-cyano-5-(3,5-difluorophenyl)-N-[(1S)-1-phenylethyl]pyridine-3-carboxamide], the pEC50 was > 8.00.

Consider `COC(=O)c1cnc(C(=O)N[C@@H](C)C2CC2)c(N2CC[C@](C)(N)C2)c1-c1cc(F)cc(F)c1` [4-4, methyl 5-[(3S)-3-amino-3-methylpyrrolidin-1-yl]-6-{[(1S)-1-cyclopropylethyl]carbamoyl}-4-(3,5-difluorophenyl)pyridine-3-carboxylate], for which the pEC50 is 7.00 to 8.00.

Take `CC(N)C1CN(c2c(C(=O)NC34CC(C3)C4)cncc2-c2cc(F)cc(F)c2)C1` (stereo not drawn) [1-63, 4-[3-(1-aminoethyl)azetidin-1-yl]-N-{bicyclo[1.1.1]pentan-1-yl}-5-(3,5-difluorophenyl)pyridine-3-carboxamide]: the pEC50 is 7.00 to 8.00.

On to `Cc1cccc2[nH]c(-c3cncc(C(=O)N4CCC(C)(C)C4)c3N3CC[C@](C)(N)C3)nc12` [2-19, (3S)-1-[3-(3,3-dimethylpyrrolidine-1-carbonyl)-5-(4-methyl-1H-1,3-benzodiazol-2-yl)pyridin-4-yl]-3-methylpyrrolidin-3-amine], for which the pEC50 was > 8.00.

Regarding `C[C@@H](NC(=O)c1cnc(C#N)c(-c2cc(F)cc(F)c2)c1N1CC[C@@H](N)C1)C(F)(F)F` [1-227, 4-[(3R)-3-aminopyrrolidin-1-yl]-6-cyano-5-(3,5-difluorophenyl)-N-[(2R)-1,1,1-trifluoropropan-2-yl]pyridine-3-carboxamide], the pEC50 is 6.00 to 7.00.

Consider `COc1ncc(C(=O)N[C@@H](C)C(F)(F)F)c(N2CC[C@H](N)C2)c1-c1cc(F)cc(F)c1` [1-151, 4-[(3S)-3-aminopyrrolidin-1-yl]-5-(3,5-difluorophenyl)-6-methoxy-N-[(2S)-1,1,1-trifluoropropan-2-yl]pyridine-3-carboxamide], for which the pEC50 was > 8.00.

As for `CC1(NC(=O)c2cncc(-c3cccc(C#N)c3)c2N2CC[C@H](N)C2)CCC1` [1-8, 4-[(3S)-3-aminopyrrolidin-1-yl]-5-(3-cyanophenyl)-N-(1-methylcyclobutyl)pyridine-3-carboxamide], the pEC50 is 6.00 to 7.00.

Turning to `C[C@@H](NC(=O)c1cnc(C#N)c(-c2cc(F)cc(F)c2)c1N1CC[C@](C)(N)C1)C(F)(F)F` [1-222, 4-[(3S)-3-amino-3-methylpyrrolidin-1-yl]-6-cyano-5-(3,5-difluorophenyl)-N-[(2R)-1,1,1-trifluoropropan-2-yl]pyridine-3-carboxamide], the pEC50 was > 8.00.

Take `Cc1cccc2[nH]c(-c3cncc(C(=O)N(C)CC(F)(F)F)c3N3CC[C@](C)(N)C3)nc12` [2-10, 4-[(3S)-3-amino-3-methylpyrrolidin-1-yl]-N-methyl-5-(4-methyl-1H-1,3-benzodiazol-2-yl)-N-(2,2,2-trifluoroethyl)pyridine-3-carboxamide]: the pEC50 is > 8.00.

In the case of `C[C@H](NC(=O)c1cnc(C#N)c(-c2cc(F)cc(F)c2)c1N1C[C@H](N)[C@@H](F)C1)C1CC1` (single isomer, unassigned) [1-136], the pEC50 was 7.00 to 8.00.

Turning to `C[C@H](NC(=O)c1cncc(-c2ccc3c(c2)OC(F)(F)O3)c1N1CC[C@](C)(N)C1)C1CC1` [1-175, 4-[(3S)-3-amino-3-methylpyrrolidin-1-yl]-N-[(1S)-1-cyclopropylethyl]-5-(2,2-difluoro-2H-1,3-benzodioxol-5-yl)pyridine-3-carboxamide], the pEC50 is 7.00 to 8.00.

As to `Cc1cnc(C(=O)N[C@@H](C)C2CC2)c(N2CC[C@](C)(N)C2)c1-c1cc(F)cc(F)c1` [4-2, 3-[(3S)-3-amino-3-methylpyrrolidin-1-yl]-N-[(1S)-1-cyclopropylethyl]-4-(3,5-difluorophenyl)-5-methylpyridine-2-carboxamide], the pEC50 was 7.00 to 8.00.

Consider `COc1ncc(C(=O)N2CCC(F)(F)CC2)c(N2CC[C@H](N)C2)c1-c1cc(F)cc(F)c1` [1-236, (3S)-1-[3-(3,5-difluorophenyl)-5-(4,4-difluoropiperidine-1-carbonyl)-2-methoxypyridin-4-yl]pyrrolidin-3-amine], for which the pEC50 is < 6.00.

On to `C[C@]1(N)CCN(c2c(C(=O)NC(C3CC3)C3CC3)ccnc2-c2cc(F)cc(F)c2)C1` [3-4, 3-[(3S)-3-amino-3-methylpyrrolidin-1-yl]-N-(dicyclopropylmethyl)-2-(3,5-difluorophenyl)pyridine-4-carboxamide], for which the pEC50 was > 8.00.

On to `C[C@]1(N)CCN(c2c(C(=O)NCC3CCC3)cncc2-c2cc(F)cc(F)c2)C1` [1-33, 4-[(3S)-3-amino-3-methylpyrrolidin-1-yl]-N-(cyclobutylmethyl)-5-(3,5-difluorophenyl)pyridine-3-carboxamide], for which the pEC50 was > 8.00.

Consider `Cc1cccc2[nH]c(-c3cncc(C(=O)N(C)CC4CC4)c3N3CC[C@](C)(N)C3)nc12` [2-23, 4-[(3S)-3-amino-3-methylpyrrolidin-1-yl]-N-(cyclopropylmethyl)-N-methyl-5-(4-methyl-1H-1,3-benzodiazol-2-yl)pyridine-3-carboxamide], for which the pEC50 was 7.00 to 8.00.

Turning to `Cc1cccc2[nH]c(-c3cncc(C(=O)N[C@H](C)C(F)(F)F)c3N3CC[C@](C)(N)C3)nc12` [2-18, 4-[(3S)-3-amino-3-methylpyrrolidin-1-yl]-5-(4-methyl-1H-1,3-benzodiazol-2-yl)-N-[(2R)-1,1,1-trifluoropropan-2-yl]pyridine-3-carboxamide], the pEC50 is > 8.00.

As to `CC(C)C(C)NC(=O)c1cncc(-c2cc(F)cc(F)c2)c1N1CC[C@](C)(N)C1` (stereo partly drawn) [1-38, 4-[(3S)-3-amino-3-methylpyrrolidin-1-yl]-5-(3,5-difluorophenyl)-N-(3-methylbutan-2-yl)pyridine-3-carboxamide], the pEC50 was > 8.00.

`Cc1cccc2[nH]c(-c3cncc(C(=O)NC4CCOC4)c3N3CC[C@](C)(N)C3)nc12` (stereo partly drawn) [2-5, 4-[(3S)-3-amino-3-methylpyrrolidin-1-yl]-5-(4-methyl-1H-1,3-benzodiazol-2-yl)-N-(oxolan-3-yl)pyridine-3-carboxamide]: the pEC50 was 6.00 to 7.00.

Consider `CC(C)C(NC(=O)c1cncc(-c2cc(F)cc(F)c2)c1N1CC[C@](C)(N)C1)C(C)C` [1-39, 4-[(3S)-3-amino-3-methylpyrrolidin-1-yl]-5-(3,5-difluorophenyl)-N-(2,4-dimethylpentan-3-yl)pyridine-3-carboxamide], for which the pEC50 is 6.00 to 7.00.

For the compound `Cc1cc(F)cc(-c2cncc(C(=O)Nc3ccn(C)n3)c2N2CC[C@](C)(N)C2)c1` [1-27, 4-[(3S)-3-amino-3-methylpyrrolidin-1-yl]-5-(3-fluoro-5-methylphenyl)-N-(1-methyl-1H-pyrazol-3-yl)pyridine-3-carboxamide], the pEC50 is > 8.00.

`COc1ncc(C(=O)N[C@@H](C)C(F)(F)F)c(N2CC[C@](C)(N)C2)c1-c1cnc(C)nc1` [1-185, 4-[(3S)-3-amino-3-methylpyrrolidin-1-yl]-6-methoxy-5-(2-methylpyrimidin-5-yl)-N-[(2S)-1,1,1-trifluoropropan-2-yl]pyridine-3-carboxamide]: the pEC50 is 7.00 to 8.00.

Regarding `Cc1cccc2[nH]c(-c3cncc(C(=O)NC45CCC(CC4)C5)c3N3CC[C@](C)(N)C3)nc12` [2-33, 4-[(3S)-3-amino-3-methylpyrrolidin-1-yl]-N-{bicyclo[2.2.1]heptan-1-yl}-5-(4-methyl-1H-1,3-benzodiazol-2-yl)pyridine-3-carboxamide], the pEC50 is > 8.00.

Turning to `Cc1ncc(C(=O)N[C@@H](C)c2ccccn2)c(N2CC[C@](C)(N)C2)c1-c1cc(F)cc(Cl)c1` [1-243, 4-[(3S)-3-amino-3-methylpyrrolidin-1-yl]-5-(3-chloro-5-fluorophenyl)-6-methyl-N-[(1S)-1-(pyridin-2-yl)ethyl]pyridine-3-carboxamide], the pEC50 is > 8.00.

`CC(F)(F)CNC(=O)c1cncc(-c2cc(F)cc(F)c2)c1N1CC[C@](C)(N)C1` [1-62, 4-[(3S)-3-amino-3-methylpyrrolidin-1-yl]-5-(3,5-difluorophenyl)-N-(2,2-difluoropropyl)pyridine-3-carboxamide]: the pEC50 is > 8.00.
